The nature of series [1]: Acute toxicity in male BALB/c mouse assessed as animal death at 16.3 to 24.5 mg/kg, ip administered as single dose and measured after 60 mins. Format: organism-based. Conditions: in vivo, 1 h, dose 16.3-24.5 mg/kg.
Series [2] is described as follows: Therapeutic index, ratio of MHC10 for hemolytic activity in mouse erythrocytes preincubated with 10% mouse serum for 6 hrs to MIC for Escherichia coli ATCC 25922 preincubated with 10% mouse serum for 6 hrs. The series is classed as toxicity, cell-based. Conditions: erythrocytes.
Series [3] is described as follows: Acute toxicity in male BALB/c mouse assessed as convulsions at 16.3 to 24.5 mg/kg, ip administered as single dose and measured after 60 mins. Conditions: in vivo, 1 h, dose 16.3-24.5 mg/kg. Format: organism-based.
Series [4] can be described thus: Therapeutic index, ratio of MHC10 for hemolytic activity in mouse erythrocytes preincubated with 10% mouse serum for 1 hr to MIC for Escherichia coli ATCC 25922 preincubated with 10% mouse serum for 1 hr. The series is classed as toxicity, cell-based. Conditions: erythrocytes.
The nature of series [5]: Systemic toxicity in male BALB/c mouse assessed as marked alveolar cavity wrinkling at 20.83 mg/kg, ip administered as single dose by H and E staining based analysis. Format: organism-based. Conditions: in vivo.
Series [6] in a line: Acute toxicity in male BALB/c mouse assessed as respiratory asthenia at 16.3 to 24.5 mg/kg, ip administered as single dose and measured after 60 mins. Conditions: in vivo, 1 h, dose 16.3-24.5 mg/kg. Format: organism-based.
Series [7] relates to HEK-293T. Briefly: Cytotoxicity against HEK293T cells assessed as cell death measured after 1 hr by resazurin dye based analysis. Conditions: human, hek-293t, 1 h. Format: toxicity.
Series [8] can be described thus: Therapeutic index, ratio of MHC10 for hemolytic activity in mouse erythrocytes preincubated with 10% mouse serum for 1 hr to MIC for Staphylococcus aureus ATCC 25923 preincubated with 10% mouse serum for 1 hr. Conditions: erythrocytes. Format: toxicity, cell-based.
The test system of series [9] is Erythrocyte. Description: Hemolytic activity in mouse erythrocytes assessed as 10% hemolysis incubated for 1 hr by absorbance based analysis. The series is classed as toxicity, cell-based.
Series [10] is described as follows: Acute toxicity in ip dosed male BALB/c mouse administered as single dose. The series is classed as organism-based. Conditions: in vivo, ip.
Series [11] can be described thus: Systemic toxicity in male BALB/c mouse assessed as hemorrhage at 20.83 mg/kg, ip administered as single dose by H and E staining based analysis. The series is classed as organism-based. Conditions: in vivo.
The nature of series [12]: Systemic toxicity in male BALB/c mouse assessed as severe hepatocyte necrosis at 20.83 mg/kg, ip administered as single dose by H and E staining based analysis. Format: organism-based. Conditions: hepatocytes.
Series [13] can be described thus: Acute toxicity in male BALB/c mouse assessed as eye closure at 16.3 to 24.5 mg/kg, ip administered as single dose and measured after 60 mins. Conditions: in vivo, 1 h, dose 16.3-24.5 mg/kg. Format: organism-based.
A short description of series [14]: Acute toxicity in male BALB/c mouse assessed as mortality rate at 24.5 mg/kg, ip administered as single dose and measured after 120 mins relative to control. The series is classed as organism-based. Conditions: in vivo, 2 h.
Series [15] in a line: Systemic toxicity in male BALB/c mouse assessed as pathological changes in heart at 20.83 mg/kg, ip administered as single dose by H and E staining based analysis. The series is classed as organism-based. Conditions: in vivo.
The nature of series [16]: Systemic toxicity in male BALB/c mouse assessed as inflammatory cell infiltration at 20.83 mg/kg, ip administered as single dose by H and E staining based analysis. Conditions: in vivo. Format: organism-based.
The nature of series [17]: Therapeutic index, ratio of MHC10 for hemolytic activity in mouse erythrocytes preincubated with 10% mouse serum for 6 hrs to MIC for Staphylococcus aureus ATCC 25923 preincubated with 10% mouse serum for 6 hrs. Format: toxicity, cell-based. Conditions: erythrocytes.

On to POLYMYXIN B, for which the Activity entry in series [1], in series [3], in series [5], in [6], in [11] and in series [12] was “Toxic” each time. Moreover, the Activity entry in series [13] was “Toxic”; in [14], 100%; in series [15] it was “Non-Toxic”; in series [16], “Toxic”. Besides, the TI is 0.5 in series [2], 1 in series [4], 1 in series [8] and 1 in series [17]. The CC50 in series [7] was over 128 µM. The MHC10 in series [9] was over 256 µM. Moreover, the median lethal dose (LD50) in series [10] was found to be 20.83 mg/kg.

For the origin of these results see ChEMBL document CHEMBL5500371, “Arginine and tryptophan-rich dendritic antimicrobial peptides that disrupt membranes for bacterial infection in vivo” (Eur J Med Chem, 2024).
